In PMC10746212 (mBio, 2023):

Target: T1, MdrA (rMdrA) (Brucella abortus, UniProt Q2YN99)
T1 construct: gene BAB1_0783
Conditions: 192 bp btaE promoter fragment, rMucR present, pH 7.4, room temperature; inhibitor of MdrA displacement activity; no direct binding measured

T1 sequence (Q2YN99 1-199 limits assumed): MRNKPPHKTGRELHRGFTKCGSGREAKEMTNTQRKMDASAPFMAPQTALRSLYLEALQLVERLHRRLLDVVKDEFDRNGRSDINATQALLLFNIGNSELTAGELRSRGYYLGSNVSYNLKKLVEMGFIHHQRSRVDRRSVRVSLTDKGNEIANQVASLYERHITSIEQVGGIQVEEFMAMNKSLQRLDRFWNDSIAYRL

With `C[C@H](CCC(=O)O)[C@H]1CC[C@H]2[C@@H]3CC[C@@H]4C[C@H](O)CC[C@]4(C)[C@H]3C[C@H](O)[C@]12C` [deoxycholate] the “EMSA, displacement of MucR from 32P-labelled btaE promoter DNA by rMdrA” value was “MdrA can no longer displace MucR from the btaE promoter when deoxycholate”.
